Consider two compounds from publication PMC6093421, “Identification and characterization of terpene synthase genes accounting for volatile terpene emissions in flowers of Freesia x hybrida” (Journal of Experimental Botany, 2018).

For this experiment, the system named is T1, FhTPS7.
T1 construct: gene TPS7; full-length ORF (570 residues, no transit peptide, TPS-a clade) in pET-32a, E. coli BL21 (DE3), Ni-purified
The experiment can be described thus: GC-MS of hexane-extracted products, Michaelis-Menten non-linear fit. Conditions: 25 mM HEPES pH 7.4, 15 mM MgCl2, 5 mM DTT, 30 °C, 20 min. The class given is biochemical, Freesia x hybrida. From the text:
GC-MS of hexane-extracted products, Michaelis-Menten non-linear fit on FhTPS7

SMILES strings stand for the structures.

On to `CC(C)=CCC/C(C)=C/CC/C(C)=C/COP(=O)(O)OP(=O)(O)O` [FPP, farnesyl diphosphate], for which, where the note is “FPP 1–135 μM”, the Km was 5.01 ± 0.21 µM. Regarding `CC(C)=CCC/C(C)=C/COP(=O)(O)OP(=O)(O)O` [GPP, geranyl diphosphate], the Km (GPP 3–270 μM) was 3.71 ± 0.19 µM.
